From patent US10646478B2, “Methods for treatment of melanoma” (CHILDREN'S MEDICAL CENTER CORPORATION, priority 2011, dated 2020)

Tests used:
[1] = 100 mg daily for 3 days, then 20 mg per day; cited from earlier work
[2] = tested on: sox10, dct, ntl, gata1 expression; assay: In situ hybridization for neural crest and non-neural crest lineage markers; details: zebrafish, in vivo
[3] = tested on: A375 cells; assay: Cell viability of melanoma cell line A375 (FIG. 28b); type: cell-based, human
From the text: (§1) FIG. 28a, M481 cells. FIG. 28b, A375 cells. FIG. 28c, M405 cells. FIG. 28d, M528 cells. FIG. 28e, M715 cells.

[4] = tested on: neural crest derivatives; assay: Zebrafish neural crest assay (melanocytes, mitf-GFP, iridophores, mbp-mCherry glia, jaw cartilage); type: in vivo
From the text: The mitf-GFP transgenic was scored at 24 hpf, as this is the point of maximal GFP intensity.

[5] = tested on: Human BRAFV600 (M491) cells; assay: Human BRAFV600 (M491) primary melanoma xenografts in mice; type: in vivo, mouse; details: in combination with BRAFi and MEKi
[6] = tested on: crestin+ neural crest progenitors; assay: In situ hybridization (ISH) for crestin in zebrafish embryos (chemical screen for suppressors of neural crest development); type: in vivo; details: for crestin expression by ISH: zebrafish embryos, 50% epiboly to 24 hpf
Protocol: The screen was performed essentially as previously described^31. In brief, WT embryos were collected, staged and then plated at a density of 10 embryos per well in a […] tissue culture plate in 200 ul of E3 water. At 50% epiboly, 100 ul of a 3× chemical stock was added to each well using a Hamilton liquid handling robot, yielding a final 1× concentration. For the majority of the chemicals in the library, this yielded a concentration of ˜33 uM. The libraries used were the BIOMOL 480, Sigma LOPAC 1280, and selected additional compounds obtained through the Children's Hospital Boston Chemical Screening facility. Compounds known to affect pigmentation in Xenopus were obtained from a screen previously described^32, 33. After treatment, embryos were rinsed in E3 water, pronase treated to remove chorions, washed 4× in E3 and 1× in PBT, and then fixed in 4% PFA for 24 hours. Fixed embryos were changed to 100% methanol 24 h later, and kept until the time of ISH.
Embryos underwent automated ISH using a Biolane HTI robot with a crestin riboprobe as previously described^31. All wells were manually scored by eye, assigning a score within a range of 1 (no crestin staining) to 3 (no change in crestin) to 5 (marked increase in crestin). Note was also taken of chemicals that affected migratory patterns in both A-P and D-V directions, and overall morphology. […] All hits were validated in larger, independent clutches of 100-200 embryos using chemicals obtained from independent suppliers.

[7] = tested on: A375 melanoma cells; assay: In vivo xenograft study of A375 cells in nude mice; parameters: species or system mouse; details: daily i.p.; PLX4720 2.5 mg/kg, Leflunomide 7.5 mg/kg; DMSO 7.4+/−1.3-fold
Protocol: The A375 cell line was chosen for xenografts based on prior experience with PLX4720 in this line. Cells were grown to 60-70% confluence, trypsinized and 3.5×10^5 cells were transplanted into the right flank of nude mice in a volume of 200 ul. […] Tumors were measured with digital calipers on day 4, 7 and 12 and growth rate was compared to the tumor size on day 0. Growth rates were compared between DMSO, PLX, LEF or […] using ANOVA with repeated measures to identify significant interactions. For the day 12 data, differences between the groups were compared using ANOVA followed by posthoc Tukey's least-squared difference.

[8] = arthritis patients; cited from earlier work
[9] = tested on: M481 primary human melanoma xenografts; assay: M481 primary human melanoma xenografts in mice; type: in vivo, mouse; details: in combination with Plexicon
[10] = tested on: gene expression (123-gene melanoma signature); assay: Microarray analysis of leflunomide treated zebrafish embryos; type: in vivo
[11] = tested on: CYP450 isoenzymes; details: parent compound and active metabolite; cited from earlier work
[12] = tested on: 5' and 3' transcripts of mitf, dlb, beta-actin; assay: 5'-3' transcriptional elongation assay (qRT-PCR on whole embryos); type: in vivo, zebrafish
Protocol: Primers were designed to the noted genes, situated at the very 5′ end or 3′ end of the gene, situated in the UTR if annotated. qRT-PCR was then performed using SYBR Green, and each primer pair was normalized to an average of the Ct value for the 5′ beta-actin and 3′ beta-actin primers. Fold-change was calculated using the delta-delta Ct method, and all values are expressed relative to the DMSO control, after log 2 transformation. Differences between groups were assessed using t-tests. Primer sequences available upon request.

[13] = tested on: A375 cell line; assay: Microarray analysis of A375 cells treated with leflunomide; type: cell-based, human; details: 25 uM, 3 days
Protocol: Expression analysis was performed using Illumina WG6 v3 arrays, and the data was analyzed using Illumina Genome Studio.

[14] = tested on: M481 cells; assay: Cell viability of primary human melanoma cells M481; type: cell-based; details: FIG. 28a
From the text: as §1

[15] = tested on: pigmented melanocytes in spt5m806 embryos; assay: Spt5 hypomorphic experiments: pigmentation in spt5m806 incross; type: in vivo, zebrafish; details: 3 uM
From the text: This allele has only a mild pigment defect on its own. […] Embryos were scored at 48 hpf for pigmentation, scored as “unpigmented”, “light”, or “fully pigmented” as compared to untreated wells. Individual embryos were then genotyped for the spt5^m806 mutation as previously described^14. Kruskall-Wallis analysis was used to detect a difference between the genotyped groups.

[16] = 6.5 uM, 24 hpf, relative to DMSO

Question: What does the source list for `Cc1oncc1C(=O)Nc1ccc(C(F)(F)F)cc1` [leflunomide]?
Answer: steady-state concentration [1]: approximately 60 mcg/mL; expression of sox10 and dct (ISH) [2]: reduced expression of sox10 and dct; intensity of mesoderm marker ntl and blood marker gata1 (ISH) [2]: No significant difference is seen in intensity; cell survival of A375 cells [3]: impair cell survival; microphthalmia ([4]; 2.5 uM from 5-72 hpf): microphthalmia was induced; reflective iridophores on the surface of the eye ([4]; 2.5 uM from 5-72 hpf): reduction of reflective iridophores on the surface of the eye; mitf-GFP+ cells ([4]; 24 hpf): nearly complete loss of mitf-GFP+ cells; pigmented melanocytes ([4]; 36-48 hpf): devoid of pigmented melanocytes; jaw cartilage ([4]; 72 hpf): jaw cartilage disruption; myelin basic protein (mbp)-mCherry glial cells ([4]; 72 hpf): reduction of myelin basic protein (mbp)-mCherry glial cells; tumor growth [5]: significantly impair tumor growth; ability to inhibit neural crest development (rank order of effect) ([6]; Example III, different concentrations, crestin ISH): approximately the same as compounds 5 and 6; crestin expression by ISH [6]: reduction in expression of the neural crest; crestin expression by ISH ([6]; listed as Leflunomide): phenocopied NSC210627; tumor growth at 12 days post-treatment [7]: 4.7+/−0.12 fold; treatment-related adverse event more prevalent than with placebo [8]: elevation of liver transaminase; tumor volume [9]: more effective when used in combination with Plexicon; number of genes upregulated ([10]; 6.5 uM, 50% epiboly to 24 hpf, 2-fold): 60 genes; genes upregulated in the 123-gene melanoma signature that are downregulated ([10]; leflunomide treated embryos): 49%; metabolism by CYP450 isoenzymes [11]: Neither the parent compound nor the active metabolite is metabolized by CYP450 isoenzymes; dlb 3′ transcript abundance [12, 16]: 0.74+/−0.07 fold; dlb 5′ transcript abundance [12, 16]: 1.13+/−0.14 fold; mitf 3′ transcript abundance [12, 16]: 0.39+/−0.07 fold; mitf 5′ transcript abundance [12, 16]: 3.75+/−1.19 fold; beta-actin 3′ transcript abundance ([12]; control gene, 6.5 uM, 24 hpf): 0.99+/−0.06 fold; beta-actin 5′ transcript abundance ([12]; control gene, 6.5 uM, 24 hpf): 1.03+/−0.07 fold; 3′ transcription of mitf, pvalb2, her4.2 and dlb ([12]; leflunomide vs. DMSO): significant decrease in 3′ transcription; gene expression in A375 (microarray) [13]: downregulation of genes required for neural crest development; cell survival of M481 cells [14]: impair cell survival; embryos with few or no melanocytes, spt5m806 mutant ([15]; mutant embryos): 99%; embryos with few or no melanocytes, wild type ([15]; wild type embryos): 0%
